Organism: Rattus norvegicus
Test: DrugMatrix - Regimen: Daily Repeat
Type: toxicity, organism-based, Sprague-Dawley
Set-up: regimen Daily Repeat, gender Male, age 6-8 weeks
Details: in vivo, po, route oral GAVAGE, […]; for ABSOLUTE BASOPHIL / BASOPHIL / NUCLEATED RED BLOOD CELLS / ABSOLUTE EOSINOPHIL / ABSOLUTE LYMPHOCYTE / ABSOLUTE MONOCYTE / ABSOLUTE SEGMENTED NEUTROPHIL / EOSINOPHIL / ERYTHROCYTE COUNT / HEMATOCRIT / LEUKOCYTE COUNT / MEAN CORPUSCULAR HEMOGLOBIN / MEAN CORPUSCULAR HEMOGLOBIN CONCENTRATION / MEAN CORPUSCULAR VOLUME / MONOCYTE / NEUTROPHIL / PLATELET COUNT: tissue Blood; for TOTAL BILIRUBIN / ALANINE AMINOTRANSFERASE / ALBUMIN / ALKALINE PHOSPHATASE / ASPARTATE AMINOTRANSFERASE / BLOOD UREA NITROGEN / CHLORIDE / CHOLESTEROL / CREATINE PHOSPHOKINASE / CREATININE / GLUCOSE / LACTATE DEHYDROGENASE / LIPASE / PHOSPHORUS / POTASSIUM / URIC ACID: tissue Plasma
[1] = 0 mg/kg, 72 h, dose level Control, time 3 day
[2] = 0 mg/kg, 120 h, dose level Control, time 5 day
[3] = 1 mg/kg, 72 h, dose level Low, time 3 day
[4] = 1 mg/kg, 120 h, dose level Low, time 5 day
[5] = 150 mg/kg, 72 h, dose level M1, time 3 day
[6] = 300 mg/kg, 72 h, dose level High, time 3 day
[7] = 300 mg/kg, 120 h, dose level High, time 5 day

C[C@@H]1C[C@H]2[C@@H]3CCC4=CC(=O)C=C[C@]4(C)[C@@]3(F)[C@@H](O)C[C@]2(C)[C@@]1(O)C(=O)CO [DEXAMETHASONE]
ABSOLUTE BASOPHIL [1]: 0 CELLS/uL | BASOPHIL [1]: 0% | NUCLEATED RED BLOOD CELLS [1]: 0 /100WBC | TOTAL BILIRUBIN [1]: 0.2 mg/dL | ABSOLUTE BASOPHIL [2]: 0 CELLS/uL | BASOPHIL [2]: 0% | ABSOLUTE BASOPHIL [3]: 0 CELLS/uL | ABSOLUTE EOSINOPHIL [3]: 0 CELLS/uL | ABSOLUTE LYMPHOCYTE [3]: 386.33 CELLS/uL | ABSOLUTE MONOCYTE [3]: 54.33 CELLS/uL | ABSOLUTE SEGMENTED NEUTROPHIL [3]: 12226 CELLS/uL | BASOPHIL [3]: 0% | EOSINOPHIL [3]: 0% | ERYTHROCYTE COUNT [3]: 4.89 x10E6/uL | HEMATOCRIT [3]: 30.93% | LEUKOCYTE COUNT [3]: 12.67 x10E3/uL | MEAN CORPUSCULAR HEMOGLOBIN [3]: 25.53 pg | MEAN CORPUSCULAR HEMOGLOBIN CONCENTRATION [3]: 40.3 G/DL | MEAN CORPUSCULAR VOLUME [3]: 63.33 fL | MONOCYTE [3]: 0.33% | NEUTROPHIL [3]: 96% | NUCLEATED RED BLOOD CELLS [3]: 1 /100WBC | PLATELET COUNT [3]: 1088 x10E3/uL | ALANINE AMINOTRANSFERASE [3]: 118.33 u/L | ALBUMIN [3]: 4.1 G/DL | ALKALINE PHOSPHATASE [3]: 632 u/L | ASPARTATE AMINOTRANSFERASE [3]: 203 u/L | BLOOD UREA NITROGEN [3]: 28.33 mg/dL | CHLORIDE [3]: 95 MEQ/L | CHOLESTEROL [3]: 76.33 mg/dL | CREATINE PHOSPHOKINASE [3]: 789 u/L | CREATININE [3]: 0.16 mg/dL | GLUCOSE [3]: 441 mg/dL | LACTATE DEHYDROGENASE [3]: 205.67 u/L | LIPASE [3]: 45.67 u/L | PHOSPHORUS [3]: 10.57 mg/dL | POTASSIUM [3]: 5.98 MEQ/L | TOTAL BILIRUBIN [3]: 0.33 mg/dL | URIC ACID [3]: 1.2 mg/dL | ABSOLUTE BASOPHIL [4]: 0 CELLS/uL | ABSOLUTE EOSINOPHIL [4]: 0 CELLS/uL | ABSOLUTE LYMPHOCYTE [4]: 716 CELLS/uL | ABSOLUTE MONOCYTE [4]: 233 CELLS/uL | ABSOLUTE SEGMENTED NEUTROPHIL [4]: 18184.33 CELLS/uL | BASOPHIL [4]: 0% | EOSINOPHIL [4]: 0% | ERYTHROCYTE COUNT [4]: 3.43 x10E6/uL | HEMATOCRIT [4]: 25.35% | LEUKOCYTE COUNT [4]: 19.13 x10E3/uL | MEAN CORPUSCULAR HEMOGLOBIN [4]: 24.9 pg | MEAN CORPUSCULAR HEMOGLOBIN CONCENTRATION [4]: 40.75 G/DL | MEAN CORPUSCULAR VOLUME [4]: 59.67 fL | MONOCYTE [4]: 1.33% | NEUTROPHIL [4]: 94% | NUCLEATED RED BLOOD CELLS [4]: 3.33 /100WBC | PLATELET COUNT [4]: 832.67 x10E3/uL | ALANINE AMINOTRANSFERASE [4]: 247 u/L | ALBUMIN [4]: 3.87 G/DL | ALKALINE PHOSPHATASE [4]: 684.67 u/L | ASPARTATE AMINOTRANSFERASE [4]: 267.67 u/L | BLOOD UREA NITROGEN [4]: 20 mg/dL | CHLORIDE [4]: 95 MEQ/L | CHOLESTEROL [4]: 149.67 mg/dL | CREATINE PHOSPHOKINASE [4]: 312.33 u/L | CREATININE [4]: 0.11 mg/dL | GLUCOSE [4]: 438.67 mg/dL | LACTATE DEHYDROGENASE [4]: 287.33 u/L | LIPASE [4]: 21.67 u/L | PHOSPHORUS [4]: 9.83 mg/dL | POTASSIUM [4]: 5.94 MEQ/L | TOTAL BILIRUBIN [4]: 0.25 mg/dL | URIC ACID [4]: 1.43 mg/dL | ABSOLUTE BASOPHIL [5]: 0 CELLS/uL | ABSOLUTE EOSINOPHIL [5]: 0 CELLS/uL | ABSOLUTE LYMPHOCYTE [5]: 851.67 CELLS/uL | ABSOLUTE MONOCYTE [5]: 0 CELLS/uL | ABSOLUTE SEGMENTED NEUTROPHIL [5]: 8381.67 CELLS/uL | BASOPHIL [5]: 0% | EOSINOPHIL [5]: 0% | ERYTHROCYTE COUNT [5]: 3.49 x10E6/uL | HEMATOCRIT [5]: 22.2% | LEUKOCYTE COUNT [5]: 9.23 x10E3/uL | MEAN CORPUSCULAR HEMOGLOBIN [5]: 24.87 pg | MEAN CORPUSCULAR HEMOGLOBIN CONCENTRATION [5]: 39.17 G/DL | MEAN CORPUSCULAR VOLUME [5]: 63.47 fL | MONOCYTE [5]: 0% | NEUTROPHIL [5]: 90.33% | NUCLEATED RED BLOOD CELLS [5]: 0 /100WBC | PLATELET COUNT [5]: 661.67 x10E3/uL | ALANINE AMINOTRANSFERASE [5]: 222.67 u/L | ALBUMIN [5]: 4.03 G/DL | ALKALINE PHOSPHATASE [5]: 224 u/L | ASPARTATE AMINOTRANSFERASE [5]: 153.67 u/L | BLOOD UREA NITROGEN [5]: 40.67 mg/dL | CHLORIDE [5]: 88.33 MEQ/L | CREATINE PHOSPHOKINASE [5]: 139 u/L | CREATININE [5]: 0.28 mg/dL | GLUCOSE [5]: 361.33 mg/dL | LACTATE DEHYDROGENASE [5]: 175.33 u/L | LIPASE [5]: 12 u/L | PHOSPHORUS [5]: 7.7 mg/dL | POTASSIUM [5]: 3.29 MEQ/L | TOTAL BILIRUBIN [5]: 0.27 mg/dL | URIC ACID [5]: 0.6 mg/dL | ABSOLUTE BASOPHIL [6]: 0 CELLS/uL | ABSOLUTE EOSINOPHIL [6]: 101.33 CELLS/uL | ABSOLUTE LYMPHOCYTE [6]: 370.67 CELLS/uL | ABSOLUTE MONOCYTE [6]: 0 CELLS/uL | ABSOLUTE SEGMENTED NEUTROPHIL [6]: 13461.33 CELLS/uL | BASOPHIL [6]: 0% | EOSINOPHIL [6]: 0.67% | ERYTHROCYTE COUNT [6]: 4.56 x10E6/uL | HEMATOCRIT [6]: 29.6% | LEUKOCYTE COUNT [6]: 13.93 x10E3/uL | MEAN CORPUSCULAR HEMOGLOBIN [6]: 26.77 pg | MEAN CORPUSCULAR HEMOGLOBIN CONCENTRATION [6]: 41.3 G/DL | MEAN CORPUSCULAR VOLUME [6]: 64.73 fL | MONOCYTE [6]: 0% | NEUTROPHIL [6]: 96.67% | NUCLEATED RED BLOOD CELLS [6]: 3 /100WBC | PLATELET COUNT [6]: 922.33 x10E3/uL | ALANINE AMINOTRANSFERASE [6]: 191 u/L | ALBUMIN [6]: 3.07 G/DL | ALKALINE PHOSPHATASE [6]: 263 u/L | ASPARTATE AMINOTRANSFERASE [6]: 136.33 u/L | BLOOD UREA NITROGEN [6]: 17 mg/dL | CHLORIDE [6]: 90.33 MEQ/L | CHOLESTEROL [6]: 231 mg/dL | CREATINE PHOSPHOKINASE [6]: 714.67 u/L | CREATININE [6]: 0.13 mg/dL | GLUCOSE [6]: 404.67 mg/dL | LACTATE DEHYDROGENASE [6]: 193.33 u/L | LIPASE [6]: 55 u/L | PHOSPHORUS [6]: 10.2 mg/dL | POTASSIUM [6]: 3.86 MEQ/L | TOTAL BILIRUBIN [6]: 1.1 mg/dL | URIC ACID [6]: 1.1 mg/dL | ABSOLUTE BASOPHIL [7]: 0 CELLS/uL | ABSOLUTE EOSINOPHIL [7]: 0 CELLS/uL | ABSOLUTE LYMPHOCYTE [7]: 332 CELLS/uL | ABSOLUTE MONOCYTE [7]: 0 CELLS/uL | ABSOLUTE SEGMENTED NEUTROPHIL [7]: 16268 CELLS/uL | BASOPHIL [7]: 0% | EOSINOPHIL [7]: 0% | ERYTHROCYTE COUNT [7]: 2.89 x10E6/uL | HEMATOCRIT [7]: 17% | LEUKOCYTE COUNT [7]: 16.6 x10E3/uL | MEAN CORPUSCULAR HEMOGLOBIN [7]: 25.3 pg | MEAN CORPUSCULAR HEMOGLOBIN CONCENTRATION [7]: 42.9 G/DL | MEAN CORPUSCULAR VOLUME [7]: 58.9 fL | MONOCYTE [7]: 0% | NEUTROPHIL [7]: 98% | NUCLEATED RED BLOOD CELLS [7]: 0 /100WBC | PLATELET COUNT [7]: 777 x10E3/uL | ALANINE AMINOTRANSFERASE [7]: 1291 u/L | ALBUMIN [7]: 3.2 G/DL | ALKALINE PHOSPHATASE [7]: 579 u/L | ASPARTATE AMINOTRANSFERASE [7]: 470 u/L | BLOOD UREA NITROGEN [7]: 26 mg/dL | CHLORIDE [7]: 87 MEQ/L | CHOLESTEROL [7]: 201 mg/dL | CREATINE PHOSPHOKINASE [7]: 1188 u/L | CREATININE [7]: 0.1 mg/dL | GLUCOSE [7]: 443 mg/dL | LACTATE DEHYDROGENASE [7]: 750 u/L | LIPASE [7]: 9 u/L | PHOSPHORUS [7]: 10.7 mg/dL | POTASSIUM [7]: 2.68 MEQ/L | TOTAL BILIRUBIN [7]: 0.8 mg/dL | URIC ACID [7]: 0.7 mg/dL

— ChEMBL document CHEMBL3885881, “DrugMatrix”
